{"source": "PubChem BioAssay (NCI)", "assay_in_all_cases": "NCI tumour cell line growth inhibition, 48 h", "key": {"PC-3 prostate": {"tested_on": "PC-3 prostate"}, "UACC-62 melanoma": {"tested_on": "UACC-62 melanoma"}, "MALME-3M melanoma": {"tested_on": "MALME-3M melanoma"}, "CAKI-1 renal": {"tested_on": "CAKI-1 renal"}, "SF-539 CNS": {"tested_on": "SF-539 CNS"}, "NCI-H23 lung": {"tested_on": "NCI-H23 lung"}, "HS 578T breast": {"tested_on": "HS 578T breast"}, "SNB-75 CNS": {"tested_on": "SNB-75 CNS"}, "BT-549 breast": {"tested_on": "BT-549 breast"}, "U251 CNS": {"tested_on": "U251 CNS"}, "A549 NSCLC": {"tested_on": "A549 NSCLC"}, "786-0 renal": {"tested_on": "786-0 renal"}, "K-562 leukemia": {"tested_on": "K-562 leukemia"}, "SK-MEL-5 melanoma": {"tested_on": "SK-MEL-5 melanoma"}, "A498 renal": {"tested_on": "A498 renal"}, "HT29 colon": {"tested_on": "HT29 colon"}, "MDA-MB-231 breast": {"tested_on": "MDA-MB-231 breast"}, "MDA-MB-435": {"tested_on": "MDA-MB-435"}, "NCI-H460 lung": {"tested_on": "NCI-H460 lung"}, "SW-620 colon": {"tested_on": "SW-620 colon"}, "KM12 colon": {"tested_on": "KM12 colon"}, "SF-295 CNS": {"tested_on": "SF-295 CNS"}, "CCRF-CEM leukemia": {"tested_on": "CCRF-CEM leukemia"}, "NCI-H522 lung": {"tested_on": "NCI-H522 lung"}, "M14 melanoma": {"tested_on": "M14 melanoma"}, "TK-10 renal": {"tested_on": "TK-10 renal"}, "RXF 393 renal": {"tested_on": "RXF 393 renal"}, "T-47D breast": {"tested_on": "T-47D breast"}, "SK-OV-3 ovarian": {"tested_on": "SK-OV-3 ovarian"}}, "note": "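Method: 48-hour compound exposure of cells in 96-well plates, five concentrations, linear interpolation of endpoints. GI50 is the concentration that inhibits growth by half. TGI is the concentration that stops growth completely.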", "data": [{"smiles": "Cn1c(-c2ccncc2)c(-c2ccc(F)cc2)c2ncccc21", "values": [{"measurement": "TGI", "setting": "PC-3 prostate", "result": "> 25", "unit": "µM"}, {"measurement": "GI50", "setting": "UACC-62 melanoma", "result": "> 25", "unit": "µM"}, {"measurement": "TGI", "setting": "UACC-62 melanoma", "result": "> 25", "unit": "µM"}, {"measurement": "GI50", "setting": "MALME-3M melanoma", "result": "> 25", "unit": "µM"}, {"measurement": "TGI", "setting": "MALME-3M melanoma", "result": "> 25", "unit": "µM"}, {"measurement": "GI50", "setting": "CAKI-1 renal", "result": "> 25", "unit": "µM"}, {"measurement": "TGI", "setting": "CAKI-1 renal", "result": "> 25", "unit": "µM"}, {"measurement": "GI50", "setting": "SF-539 CNS", "result": "> 25", "unit": "µM"}, {"measurement": "TGI", "setting": "SF-539 CNS", "result": "> 25", "unit": "µM"}, {"measurement": "GI50", "setting": "NCI-H23 lung", "result": "> 25", "unit": "µM"}, {"measurement": "TGI", "setting": "NCI-H23 lung", "result": "> 25", "unit": "µM"}, {"measurement": "GI50", "setting": "HS 578T breast", "result": "> 25", "unit": "µM"}, {"measurement": "TGI", "setting": "HS 578T breast", "result": "> 25", "unit": "µM"}, {"measurement": "GI50", "setting": "SNB-75 CNS", "result": "> 25", "unit": "µM"}, {"measurement": "TGI", "setting": "SNB-75 CNS", "result": "> 25", "unit": "µM"}, {"measurement": "GI50", "setting": "BT-549 breast", "result": "> 25", "unit": "µM"}, {"measurement": "TGI", "setting": "BT-549 breast", "result": "> 25", "unit": "µM"}, {"measurement": "GI50", "setting": "U251 CNS", "result": "> 25", "unit": "µM"}, {"measurement": "TGI", "setting": "U251 CNS", "result": "> 25", "unit": "µM"}, {"measurement": "GI50", "setting": "A549 NSCLC", "result": "> 25", "unit": "µM"}, {"measurement": "TGI", "setting": "A549 NSCLC", "result": "> 25", "unit": "µM"}, {"measurement": "GI50", "setting": "786-0 renal", "result": "> 25", "unit": "µM"}, {"measurement": "TGI", "setting": "786-0 renal", "result": "> 25", "unit": "µM"}, {"measurement": "GI50", "setting": "K-562 leukemia", "result": "> 25", "unit": "µM"}, {"measurement": "TGI", "setting": "K-562 leukemia", "result": "> 25", "unit": "µM"}, {"measurement": "GI50", "setting": "SK-MEL-5 melanoma", "result": "> 25", "unit": "µM"}, {"measurement": "TGI", "setting": "SK-MEL-5 melanoma", "result": "> 25", "unit": "µM"}, {"measurement": "GI50", "setting": "A498 renal", "result": "> 14.4", "unit": "µM"}, {"measurement": "TGI", "setting": "A498 renal", "result": "> 25", "unit": "µM"}, {"measurement": "GI50", "setting": "HT29 colon", "result": "> 25", "unit": "µM"}, {"measurement": "TGI", "setting": "HT29 colon", "result": "> 25", "unit": "µM"}, {"measurement": "GI50", "setting": "MDA-MB-231 breast", "result": "> 25", "unit": "µM"}, {"measurement": "TGI", "setting": "MDA-MB-231 breast", "result": "> 25", "unit": "µM"}, {"measurement": "GI50", "setting": "MDA-MB-435", "result": "> 25", "unit": "µM"}, {"measurement": "TGI", "setting": "MDA-MB-435", "result": "> 25", "unit": "µM"}, {"measurement": "GI50", "setting": "NCI-H460 lung", "result": "> 25", "unit": "µM"}, {"measurement": "TGI", "setting": "NCI-H460 lung", "result": "> 25", "unit": "µM"}, {"measurement": "GI50", "setting": "SW-620 colon", "result": "> 25", "unit": "µM"}, {"measurement": "TGI", "setting": "SW-620 colon", "result": "> 25", "unit": "µM"}, {"measurement": "GI50", "setting": "KM12 colon", "result": "> 25", "unit": "µM"}, {"measurement": "TGI", "setting": "KM12 colon", "result": "> 25", "unit": "µM"}, {"measurement": "GI50", "setting": "SF-295 CNS", "result": "> 25", "unit": "µM"}, {"measurement": "TGI", "setting": "SF-295 CNS", "result": "> 25", "unit": "µM"}, {"measurement": "GI50", "setting": "CCRF-CEM leukemia", "result": "> 25", "unit": "µM"}, {"measurement": "TGI", "setting": "CCRF-CEM leukemia", "result": "> 25", "unit": "µM"}, {"measurement": "GI50", "setting": "NCI-H522 lung", "result": "> 25", "unit": "µM"}, {"measurement": "TGI", "setting": "NCI-H522 lung", "result": "> 25", "unit": "µM"}, {"measurement": "GI50", "setting": "M14 melanoma", "result": "> 25", "unit": "µM"}, {"measurement": "TGI", "setting": "M14 melanoma", "result": "> 25", "unit": "µM"}, {"measurement": "GI50", "setting": "TK-10 renal", "result": 16.4, "unit": "µM"}, {"measurement": "TGI", "setting": "TK-10 renal", "result": "> 25", "unit": "µM"}, {"measurement": "GI50", "setting": "RXF 393 renal", "result": "> 25", "unit": "µM"}, {"measurement": "TGI", "setting": "RXF 393 renal", "result": "> 25", "unit": "µM"}, {"measurement": "GI50", "setting": "T-47D breast", "result": "> 25", "unit": "µM"}, {"measurement": "TGI", "setting": "T-47D breast", "result": "> 25", "unit": "µM"}, {"measurement": "GI50", "setting": "SK-OV-3 ovarian", "result": "> 25", "unit": "µM"}, {"measurement": "TGI", "setting": "SK-OV-3 ovarian", "result": "> 25", "unit": "µM"}]}]}
